Experimental data as given in patent US12545659B2, “IRAK degraders and uses thereof” (Kymera Therapeutics, Inc., priority 2019, dated 2026).

Columns and labels:
[1] = cn_pd bond; 14-membered ring; BrettPhos Pd G4/Cs2CO3; DMA; 21.2 mM; 80.0 °C
[2] = tested on: OCI-LY10 (MYD88 mutant DLBCL cell line); assay: OCI-LY10 viability, CTG; format: cell-based; details: Homo sapiens, OCI-Ly10, read-out: OCI-LY10 Viability, CTG IC50
[3] = tested on: SU-DHL2 (MYD88 mutant DLBCL cell line); assay: SU-DHL2 viability, CTG; format: cell-based; details: Homo sapiens, SU-DHL-2, read-out: SU-DHL2 Viability, CTG IC50
SU-DHL6 (MYD88 WT line) = assay: SU-DHL6 viability, CTG; format: cell-based; details: Homo sapiens, SU-DHL-6, in vitro
U2932 (MYD88 WT line) = assay: U2932 viability, CTG; format: cell-based; details: Homo sapiens, in vitro
OCI-LY19 (MYD88 WT line) = assay: OCI-LY19 viability, CTG; format: cell-based; details: Homo sapiens, in vitro
IRAK4 = target: T1, IRAK4 (Homo sapiens, UniProt Q9NWZ3); assay: IRAK4 MSD Degradation in OCI-LY10; format: cell-based; details: OCI-LY10 cells, 24 hrs incubation, read-out: IRAK4 degradation in OCI-LY10 at 24 hrs: DC50
T1 construct: endogenous in cells; host or cells: OCI-LY10
T1 sequence (Q9NWZ3 1-460): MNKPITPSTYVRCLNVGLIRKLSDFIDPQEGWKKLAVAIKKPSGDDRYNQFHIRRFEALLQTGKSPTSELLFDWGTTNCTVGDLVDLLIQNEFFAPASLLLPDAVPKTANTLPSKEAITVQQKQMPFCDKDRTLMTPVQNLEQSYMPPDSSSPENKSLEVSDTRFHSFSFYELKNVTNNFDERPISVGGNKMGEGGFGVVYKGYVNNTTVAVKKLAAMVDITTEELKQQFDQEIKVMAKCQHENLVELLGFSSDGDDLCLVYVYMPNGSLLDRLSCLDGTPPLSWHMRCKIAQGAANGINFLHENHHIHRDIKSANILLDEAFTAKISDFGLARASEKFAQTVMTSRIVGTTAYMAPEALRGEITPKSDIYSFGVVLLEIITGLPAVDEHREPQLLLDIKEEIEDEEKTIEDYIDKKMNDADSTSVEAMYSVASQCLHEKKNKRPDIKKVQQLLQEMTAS
How it was run: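 OCI-LY10 cells treated with 8-dose, 1:3 dilution series (top final 1 to 10 μM) for 4 to 24 h at 37 °C, 5% CO2. Lysate IRAK4 quantified by MSD sandwich immunoassay (mouse 2H9 capture, rabbit Y279 detection, SULFO-TAG anti-rabbit); DC50 from three-parameter logistic fit.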

Compound	ring closure, yield after HPLC [1] [%]	IC50 [2] [µM]	IC50 [3] [µM]	IC50 (SU-DHL6 (MYD88 WT line)) [µM]	IC50 (U2932 (MYD88 WT line)) [µM]	IC50 (OCI-LY19 (MYD88 WT line)) [µM]	DC50 (IRAK4) [µM]
12-((1R,4R)-4-(hydroxymethyl)cyclohexyl)-12H-5,8,11-trioxa-2-aza-1(5,6)-indazola-4(2,6)-pyridinacycloundecaphan-3-one	58						
CN(C[C@H]1CC[C@H](n2cc3cc(NC(=O)c4cccc(C(F)(F)F)n4)c(C(C)(C)O)cc3n2)CC1)C1CCN(Cc2cccc3c2n(C)c(=O)n3C2CCC(=O)NC2=O)CC1 (stereo partly shown) [I-1]		> 10	> 10	5.6	> 10	> 10	0.1 to 0.5
